Assay: gradient 5% acetonitrile 3 min, to 50% in 2 min, to 85% in 15 min, held 3 min, 100 µL/min
Details: column: Zorbax Extend-C18 2.1 x 50 mm; eluents: water / acetonitrile, 0.1% formic acid
Procedure, shortened: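 Retention times come from adduct peaks that were picked computationally and then checked by hand. The standards, pure and pooled in mixtures of ~100 molecules, were run on a Zorbax Extend-C18 column (2.1 × 50 mm, 1.8 μm) at 100 μL/min with water and acetonitrile, each with 0.1% formic acid. Detection was by quadrupole time-of-flight mass spectrometry in positive and negative ionization mode, with a dead volume of 40 μL and a dwell volume of 900 μL.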

RP-LC retention time | SMILES
594 s | Cc1nc2c(n1C)CN(C(=O)Cc1c(F)cccc1Cl)CC2
652 s | O=C(Nc1ccc(Br)cc1F)Nc1c(-c2ccncc2)nc2ccccn12
1150 s | COc1ccccc1CNS(=O)(=O)c1cccc(-c2nc(-c3ccccc3)no2)c1
883 s | COc1ccccc1OCC(=O)Nc1ccc2c(c1)Sc1ncccc1C(=O)N2C(C)C
663 s | COC(=O)c1c(C)[nH]c(C(=O)N2CCCC(C(=O)N3CCCC3)C2)c1C (centres undefined)
976 s | COC(=O)c1cccc(C(=O)Nc2cccc(Cl)c2C)n1
675 s | O=C(NCC1CCCCC1)c1ccc2ncnc(N3CCCC3)c2c1
771 s | COC(=O)c1ccc(C(=O)NCC(O)c2cccc3ccccc23)cc1 (centres undefined)
604 s | CCCNC(=O)N1CCC(c2nc(-c3ccncc3)no2)C1 (centres undefined)
662 s | COCC(=O)N1CCCN(C2=NS(=O)(=O)C(c3ccccc3)=C2C)CC1
596 s | O=C(Cn1cnc2cc3c(cc21)OCCO3)NCc1ccc2c(c1)OCCCO2
721 s | CCn1cnc(S(=O)(=O)N2CCC(C(=O)NCc3cccc(C)c3)CC2)c1
1090 s | CC1CCN(c2cc(-n3cnc(C(=O)N4CCN(c5ccccc5F)CC4)c3)ncn2)CC1
846 s | Cc1ccnc(N2CCCC(C(=O)Nc3cc(Cl)ccc3C)C2)n1 (centres undefined)
966 s | CCOC(=O)C1CCN(c2ccc3nnc(CCc4nc(-c5ccc(F)cc5)no4)n3n2)CC1
662 s | CCc1nc(-c2csc(S(=O)(=O)N3CCC(C(=O)NCc4ccc(C)cc4)CC3)c2)no1
1150 s | COc1cccc(-c2noc(-c3nc(-c4ccc5c(c4)OCO5)no3)n2)c1OC
576 s | CCNc1cc(N2CCC(CCC(=O)O)CC2)ncn1
709 s | COc1ccc2[nH]cc(CCN3CC(C(=O)NC4CCCC4)CC3=O)c2c1 (centres undefined)
1220 s | Cc1ccc(NC(=O)c2c(C)sc3ncnc(N4CCCC(C)C4)c23)cc1 (centres undefined)
640 s | O=C(NCCc1csc(C2CCN(C(=O)C3CC3)CC2)n1)C1CC1
1040 s | COc1ccc(S(=O)(=O)N2CCCC(C(=O)Nc3cc(C)ccc3C)C2)cc1Cl (centres undefined)

RP-LC retention time | SMILES
739 s | CCc1cc(-c2csc(S(=O)(=O)NCC3CCN(Cc4ccc(Cl)cc4)CC3)c2)on1
699 s | CC(=O)Nc1nc(N2CCC(C(=O)NCc3ccccc3)CC2)sc1C(=O)N1CCCC1
590 s | O=C(CN1CC(c2nc(-c3cccc(Cl)c3)no2)C1)NCC1CCCO1 (centres undefined)
659 s | CCN1CCN(C(=O)C2CCN(c3ccc(Sc4ccc(C(C)C)cc4)nn3)CC2)CC1
835 s | COc1ccc(CNC(=O)C2=C3CCCN3c3ccccc3S2(=O)=O)c(OC)c1
962 s | COc1ccccc1-c1nc(-c2ccc3nnn(C(C)C)c3c2)no1
731 s | CC(=O)c1cccc(NC(=O)CCc2c(C)nn(-c3cc(N(C)C)ncn3)c2C)c1
575 s | CCCN(C)CC1(O)CCC2(CCN(C(=O)c3ccoc3)CC2)CC1
880 s | Cc1ccc(NC(=O)C2CCc3nc(N4CCOCC4)ncc3C2)cc1Cl (centres undefined)
660 s | COc1cc(NC(=O)NCC2(O)CCCC2)cc(OC)c1
633 s | O=S(=O)(c1cccc2nsnc12)N1CCC(Cc2nc(-c3cccnc3)n[nH]2)C1 (centres undefined)
738 s | Cc1ccc(CNC2=NCCNC23CCN(S(=O)(=O)c2ccccc2C)CC3)cc1
721 s | CC(C)n1cnc(S(=O)(=O)N2CCC(C(=O)NCc3ccc(F)cc3)CC2)c1
880 s | COc1ccc(CC(=O)N2CCC[C@@H]2C(=O)NCc2csc(-c3ccccc3)n2)c(Cl)c1
965 s | Cc1ccc(-c2cn3c(CC(=O)N4c5ccccc5CC4C)csc3n2)cc1C (centres undefined)
688 s | COc1ccc(-c2cc(N3CCC(NC(=O)c4cc(OC)c(OC)c(OC)c4)C3)n[nH]2)cc1 (centres undefined)
710 s | Cc1ccccc1Nc1c(-c2ccc(O)cc2)nc2ccc(Cl)cn12
609 s | Cc1ccc(C(=O)N2C[C@@H]3C[C@H](NC(=O)c4cccnc4)[C@H]2C3)cc1F
1040 s | COc1ccc2oc(-c3noc(C4CC(=O)N(c5ccccc5)C4)n3)c(C)c2c1 (centres undefined)
701 s | COc1ccc(NS(=O)(=O)c2cc(-c3[nH]ncc3C(=O)N3CCCC3)oc2C)cc1F
1100 s | O=C(CSC1=N/C(=C/c2ccc3c(c2)OCO3)C(=O)N1c1ccccc1)c1ccccc1
744 s | CN(C)c1ccc(CNC(=O)C2CCCN(c3nccnc3Sc3ccccc3)C2)cc1 (centres undefined)

RP-LC retention time | SMILES
868 s | COc1cc(-c2noc(Cn3c(=O)n(-c4ccccc4)c(=O)c4sccc43)n2)cc(OC)c1OC
651 s | CCN1CCC(N(Cc2cccs2)C(=O)Nc2cc(OC)cc(OC)c2)CC1
1070 s | Fc1ccccc1-c1nnc(SCc2cccc(C(F)(F)F)c2)o1
905 s | c1ccc(-c2nc3nccc(-c4ccc5c(c4)OCO5)n3n2)cc1
796 s | COc1ccccc1OCCN1C(=O)C2(CCOCC2)CC1c1nnnn1C(C)(C)C (centres undefined)
926 s | COc1ccccc1NC(=O)c1ccc(NS(=O)(=O)c2cc(C)ccc2C)cc1
892 s | CCC(=O)N(C1CCOCC1)C1CCN(S(=O)(=O)c2ccc(C(F)(F)F)cc2)CC1
772 s | COc1cc(N)c(Cl)cc1C(=O)N[C@@H]1CCN(CCCOc2ccc(F)cc2)C[C@@H]1OC
683 s | Cc1[nH]c2ccccc2c1S(=O)(=O)CCNC(=O)Nc1cccs1
681 s | CCc1cc(=O)n(CC(=O)Nc2ccc3c(c2)OCCO3)c(N2CCOCC2)n1
666 s | Cc1cc(OCC(=O)Nc2ccc(Br)cc2F)nc(N2CCCCC2)n1
676 s | Cc1ccc(CNC(=O)N2CCCC(Cn3cnc4cccnc43)C2)cc1 (centres undefined)
785 s | CN(c1ccccc1)c1nc(=O)n(CC(=O)Nc2ccc3c(c2)OCCO3)c2ccccc12
592 s | COc1cccc(N2CCN(C(=O)c3ccc4c(c3)NC(=O)C3CCCCN43)CC2)c1 (centres undefined)
1240 s | CCOc1nc2ccccc2nc1N1CCCC(C(=O)Nc2ccc(C(C)C)cc2)C1 (centres undefined)
604 s | NC(=O)Cc1ccc(NS(=O)(=O)c2cccs2)cc1
1140 s | C(=C\c1ccc(/C=C/c2ccccc2)nn1)/c1ccccc1
558 s | Cn1c(N2CCCC(C(=O)NCc3cccnc3)C2)cc(=O)n(C)c1=O (centres undefined)
1150 s | COc1ccc(Cn2c(=O)c3sccc3n(Cc3nc(-c4ccccc4C)no3)c2=O)cc1
634 s | COCCN1C(=O)C(CC(=O)NCCCn2cccn2)=C2CCCCC21 (centres undefined)
560 s | O=C(NCCCN1CCOCC1)C1CCc2sc(C(=O)N3CCCCCC3)cc2C1 (centres undefined)
940 s | Cn1c(=O)c2c3c(cnc2n(C)c1=O)C(=O)CC(c1ccc(F)cc1)C3 (centres undefined)

RP-LC retention time | SMILES
806 s | CCSc1nnc(NC(=O)CSc2nnc(COc3ccccc3)o2)s1
779 s | CCc1ccc(S(=O)(=O)N2CCC3(CC2)NCCN=C3NCc2ccccc2OC)cc1
600 s | O=S(=O)(Nc1ccc(-c2cn3ccccc3n2)cc1)c1ccccc1
641 s | CC(C)CCNC(=O)N1CCC(OC2CCN(Cc3ccccc3)CC2)CC1
836 s | CC(C)(C)NC(=O)N1CCC(CNC(=O)C(=O)Nc2ccccc2Cl)CC1
1240 s | Cc1ccc(S(=O)(=O)N2CCc3nc(-c4ccccc4)ncc3C2)cc1Cl
687 s | O=C(Cn1cccc1-c1nnc(-c2ccccc2)o1)N1CCN(C2CCCCC2)CC1
670 s | CNC(=O)Nc1ccc(C2(C(=O)NCc3ccco3)CCC2)cc1
609 s | O=c1cc[nH]c2c(C(F)(F)F)cccc12
541 s | CN1CC(=O)NC(c2ccccc2Cl)C1=O (centres undefined)
902 s | O=C(NC1CCCCCCC1)C1CCN(S(=O)(=O)c2cc(C(=O)N3CCCC3)cs2)CC1
613 s | O=C(NC1CCCCCC1)C1CCN(C(=O)C2Sc3ccccc3NC2=O)CC1 (centres undefined)
609 s | Cc1ccccc1-c1nc(Cn2ccnc2)no1
1190 s | CC(C)Oc1ccc(-c2noc(CN3C(=O)COc4cc(Cl)ccc43)n2)cc1
1160 s | CCCCn1c(=O)c2ccccc2n(Cc2nc(-c3cccc(OC)c3)no2)c1=O
1040 s | CCOc1ccc(NS(=O)(=O)c2c(C)sc(C)c2-c2n[nH]c(C)c2C)cc1
630 s | CCc1nc2ccc(-c3noc(-c4ccc(NC(C)=O)cc4)n3)cc2n1CC
862 s | O=C(NC1CCN(c2cc(-c3ccc(Cl)cc3)[nH]n2)C1)c1cccc(OC(F)(F)F)c1 (centres undefined)
1010 s | Cc1sc(NC(=O)CCc2ccccc2)nc1-c1ccc2c(c1)N(C)C(=O)CO2
887 s | CC1(C(=O)NCc2ccc(F)cc2)CCCN(C(=O)Nc2ccc(F)cc2)C1 (centres undefined)
856 s | COc1ccc(OC)c(NC(=O)N2CCC3(CC2)N=C(c2cccc(F)c2)C(=O)N3)c1

SMILES | RP-LC retention time
O=C(CF)N(O)c1ccc(/C=C/c2ccccc2)cc1 | 959 s
CCN(CC)C(=O)c1ccc2c(c1)N(CC(=O)NC(C)C)C(=O)C1CCCCN21 (centres undefined) | 735 s
